Reference: ChEMBL document CHEMBL5241090, “A comprehensive overview of β-carbolines and its derivatives as anticancer agents” (Eur J Med Chem, 2021)
≈ marks a conversion by molar mass, not a printed value.

What was measured:
[1] = tested on: Breast carcinoma cell; test: Cytotoxicity against human Breast cancer cell line measured after 72 hrs by MTT assay; type: functional, cell-based
[2] = Cytotoxicity against human Pancreatic cancer cell measured after 72 hrs by MTT assay; type: functional, cell-based
[3] = tested on: HeLa; test: Cytotoxicity against human HeLa cells measured after 48 hrs by MTT assay; type: functional, cell-based
[4] = tested on: HT-29; test: Cytotoxicity against human HT-29 cells measured after 48 hrs by MTT assay; type: functional, cell-based; conditions: HT-29, 48 h
[5] = tested on: HGC-27; test: Cytotoxicity against human HGC-27 cells measured after 48 hrs by MTT assay; type: functional, cell-based; conditions: HGC-27, 48 h
[6] = tested on: MCF7; test: Cytotoxicity against human MCF7 cells measured after 48 hrs by MTT assay; type: functional, cell-based; conditions: MCF7, 48 h
[7] = tested on: PC-3; test: Cytotoxicity against human PC-3 cells measured after 48 hrs by MTT assay; type: functional, cell-based; conditions: PC-3, 48 h
[8] = tested on: HL-60; test: Cytotoxicity against human HL-60 cells; type: functional, cell-based; conditions: Homo sapiens, HL-60; read-out: IC50
[9] = tested on: PC-3; test: Cytotoxicity against human PC-3 cells; type: functional, cell-based
[10] = tested on: SGC-7901; test: Cytotoxicity against human SGC-7901 cells; type: functional, cell-based
[11] = tested on: NCI-H460; test: Antiproliferative activity against human NCI-H460 cells assessed as cell viability incubated for 24 hrs by MTT assay; type: functional, cell-based; conditions: NCI-H460, 24 h
[12] = tested on: NCI-H460; test: Antiproliferative activity against human NCI-H460 cells assessed as cell viability incubated for 48 hrs by MTT assay; type: functional, cell-based; conditions: NCI-H460, 48 h
[13] = tested on: T47D; test: Antiproliferative activity against human T47D cells assessed as cell viability incubated for 24 hrs by MTT assay; type: functional, cell-based
[14] = tested on: T47D; test: Antiproliferative activity against human T47D cells assessed as cell viability incubated for 48 hrs by MTT assay; type: functional, cell-based
[15] = tested on: HCT-116; test: Antiproliferative activity against human HCT-116 cells assessed as cell viability incubated for 24 hrs by MTT assay; type: functional, cell-based; conditions: HCT-116, 24 h
[16] = tested on: HCT-116; test: Cytotoxicity against human HCT-116 cells; type: functional, cell-based
[17] = tested on: SR; test: Cytotoxicity against human SR cells; type: functional, cell-based
[18] = tested on: RPMI-8226; test: Cytotoxicity against human RPMI-8226 cells; type: functional, cell-based
[19] = tested on: CCRF-CEM; test: Cytotoxicity against human drug sensitive CCRF-CEM cells assessed as fluorescence incubated for 72 hrs by resazurin reduction assay; type: functional, cell-based
[20] = tested on: Keratinocyte; test: Cytotoxicity against guinea pig ear keratinocytes using [3H]thymidine by liquid scintillation counting analysis; type: functional, cell-based; conditions: Cavia porcellus
[21] = tested on: ADR5000 cell line; test: Cytotoxicity against human multidrug-resistant CEM/ADR5000 cells assessed as fluorescence incubated for 72 hrs by resazurin reduction assay; type: functional, cell-based; conditions: ADR5000, 72 h
[22] = tested on: HCC1395; test: Antiproliferative activity against human HCC1395 cells incubated for 48 hrs by MTT assay; type: functional, cell-based; conditions: HCC1395, 48 h
[23] = tested on: DU-145; test: Antiproliferative activity against human DU-145 cells incubated for 48 hrs by MTT assay; type: functional, cell-based; conditions: DU-145, 48 h
[24] = tested on: HL-60(TB); test: Antiproliferative activity against human HL-60(TB) cells; type: functional, cell-based
[25] = tested on: A549; test: Cytotoxicity against human A549 cells; type: functional, cell-based
[26] = tested on: MCF7; test: Cytotoxicity against human MCF7 cells; type: functional, cell-based
[27] = tested on: HCT-15; test: Cytotoxicity against human HCT-15 cells; type: functional, cell-based
[28] = tested on: NCI-H460; test: Cytotoxicity against human NCI-H460 cells; type: functional, cell-based
[29] = tested on: LoVo; test: Cytotoxicity against human LoVo cells by MTT assay; type: functional
[30] = tested on: PC-3; test: Antiproliferative activity against human PC-3 cells; type: functional, cell-based
[31] = tested on: Malme-3M; test: Cytotoxicity against human Malme-3M cells; type: functional, cell-based
[32] = tested on: OVCAR-3; test: Cytotoxicity against human OVCAR-3 cells; type: functional, cell-based
[33] = tested on: COLO 205; test: Antiproliferative activity against human COLO 205 cells; type: functional, cell-based
[34] = tested on: 1A9; test: Cytotoxicity against human 1A9 cells by SRB assay; type: functional, cell-based
[35] = tested on: KB; test: Cytotoxicity against human KB cells by SRB assay; type: functional, cell-based
[36] = tested on: SAOS-2; test: Cytotoxicity against human SAOS-2 cells by SRB assay; type: functional, cell-based
[37] = tested on: A549; test: Cytotoxicity against human A549 cells by SRB assay; type: functional, cell-based
[38] = tested on: SK-MEL-2; test: Cytotoxicity against human SK-MEL-2 cells by SRB assay; type: functional, cell-based
[39] = Cytotoxicity against human U-87 MG cells by SRB assay; type: functional, cell-based, U-87MG ATCC
[40] = tested on: MCF7; test: Cytotoxicity against human MCF7 cells by SRB assay; type: functional, cell-based

COc1ccc2[nH]c3c(-c4cccc5ccccc45)nccc3c2c1
IC50 [1]: 0.39 µM
IC50 [2]: 0.38 µM

COc1cc(-c2nc(Cn3cc(CN4C(=O)c5ccccc5C4=O)nn3)cc3c2[nH]c2ccccc23)cc(OC)c1OC
IC50 [3]: 3.67 µM
IC50 [4]: 3.67 µM
IC50 [5]: 3.67 µM
IC50 [6]: 3.67 µM
IC50 [7]: 3.67 µM

COC(=O)NCCc1c(C(=O)C[C@]2(C)c3[nH]c4cc(OC)ccc4c3CCN2C(=O)OC)[nH]c2cc(OC)ccc12
IC50 [8]: 3.81 µM
IC50 [9]: 11.5 µM
IC50 [10]: 15.2 µM

Cc1nccc2c3ccccc3n(CCCCn3c4ccccc4c4ccnc(C)c43)c12
IC50 [11]: 10.9 µM
IC50 [12]: 9.58 µM
IC50 [13]: 9.88 µM
IC50 [14]: 8.22 µM
IC50 [15]: 5.09 µM

O=C(Cn1c2ccccc2c2ccncc21)N/N=C/c1cccc2ccccc12
IC50 [16]: 3.5 µM
IC50 [17]: 6.3 µM
IC50 [18]: 7.8 µM

O=c1ccc2nccc3c4ccccc4n1c23 [CANTHIN-6-ONE]
IC50 [19]: 15.8 µM
IC50 [20]: 1.11 µg/mL (≈ 5.04 µM)
IC50 [21]: 10.5 µM
IC50 [22]: 8.12 µg/mL (≈ 36.9 µM)
IC50 [23]: 9.43 µg/mL (≈ 42.8 µM)

COc1ccc2[nH]cc(-c3nccc4c3[nH]c3ccc(OC)cc34)c2c1
IC50 [24]: 4.2 µM

COc1ccc(OC)c(-c2nc(/C=C3/C(=O)N(Cc4ccccc4)c4ccc(Br)cc43)cc3c2[nH]c2ccccc23)c1
IC50 [25]: 1.43 µM
IC50 [26]: 1.43 µM
IC50 [16]: 1.43 µM
IC50 [27]: 1.43 µM
IC50 [28]: 1.43 µM

CCCCn1c2ccccc2c2cc(C(=O)O)ncc21
IC5 [29]: 11 µM

COc1c[n+](Cc2ccccc2)c2ccc(=O)n3c4ccccc4c1c23
IC50 [30]: 8 µM

O=C1c2ccccc2-[n+]2ccc3c([nH]c4ccccc43)c21 [FASCAPLYSIN]
IC50 [25]: 0.38 µg/mL
IC50 [26]: 0.14 µg/mL
IC50 [31]: 0.03 µg/mL
IC50 [32]: 0.16 µg/mL

CC(C)(C)OC(=O)n1cc(C/C=C(\c2cn(C(=O)OC(C)(C)C)c3ccccc23)C2NCCc3c2[nH]c2ccccc32)c2ccccc21 (stereo not drawn)
IC50 [33]: 2.7 µM

COc1ccc2c(c1)[nH]c1c(/C=C/c3ccc([N+](=O)[O-])cc3)nccc12
IC50 [34]: 0.3 µg/mL (≈ 0.869 µM)
IC50 [35]: 0.3 µg/mL (≈ 0.869 µM)
IC50 [36]: 0.3 µg/mL (≈ 0.869 µM)
IC50 [37]: 0.3 µg/mL (≈ 0.869 µM)
IC50 [38]: 0.3 µg/mL (≈ 0.869 µM)
IC50 [39]: 0.3 µg/mL (≈ 0.869 µM)
IC50 [40]: 0.3 µg/mL (≈ 0.869 µM)
